From patent US20100234395A1, “UREIDE DERIVATIVE AND PHARMACEUTICAL APPLICATION THEREOF” (TORAY INDUSTRIES, INC., priority 2006, published 2010) come the findings set out here.

Where two headings read alike, the source gives them in different places.

One assay deals with ddY mice. Kind of assay: Acetic acid writhing test in mice (analgesic effects). It is filed as in vivo. As to conditions: for ED50: Mus musculus. As to the method: ddY mice were grown for at least 16 hours under fasting conditions while free water intake was allowed, and a solution of the test compound or a solvent was orally administered thereto (0.1 ml/10 g). As a solvent for a solution of the test compound, dimethyl sulfoxide (DMSO):Tween 80:27% hydroxypropyl-P-cyclodextrin (hereafter abbreviated to “HP-β-CD”) (1:1:8) or 27% HP-β-CD was used. A solution of 0.6% acetic acid (0.1 ml/10 g) was administered intraperitoneally 45 minutes after administration to induce a writhing reaction (i.e., a movement of stretching or arching the body). The number of the writhing reactions that had occurred for the period from 10 minutes after administration of the acetic acid solution to 10 minutes thereafter was counted, and the number of times was designated as an indicator of pain. The number of times of reactions in the group to which a solvent had been administered was designated as 100%, and the concentration of the test compound that had inhibited 50% of such reaction was designated as the ED50 value.
The compound of Reference Example 78 is disclosed in the claims of JP Patent Publication (kohyo) No. 2006-517535 A, the compounds of Reference Examples 93 and 199 are disclosed in the claims of JP Patent No. 3003148, and the compound of Reference Example 103 is disclosed in the claims of JP Patent Publication (kohyo) No. 2006-514095 A. Thus, these compounds were compared with the compounds of the present invention having similar structures in terms of analgesic effects with oral administration (Table 4) or subcutaneous administration (Table 5). Dimethyl sulfoxide (DMSO):Tween 80:27% HP-β-CD (1:1:8) or 27% HP-β-CD was used as a solvent for the test compound.
In general terms: Writhing tests count abdominal constrictions after an irritant is injected.

The target in another assay is T1, COX-1 (Homo sapiens, UniProt P23219).
T1 construct: Human blood that had been sampled with the use of heparin (19 units/ml) was used; from tissue; host or cells: human whole blood (heparinised)
Nature of the assay: Activity of inhibiting COX-1 in human blood (thromboxane B2 after ionomycin). As to conditions: thromboxane B2 production. Format: cell-based. As to the method: Human blood that had been sampled with the use of heparin (19 units/ml) was used. Blood was fractionated to reaction tubes in amounts of 500 μl, the test compound or solvent was added thereto, and the resultants were incubated at 37° C. for 60 minutes. Dimethyl sulfoxide (DMSO) was used as a solvent for the test compound. Thereafter, ionomycin (30 nM) was added, and the reaction was allowed to proceed for 30 minutes. After the completion of the reaction, the supernatant (blood plasma) was recovered via centrifugation at 4° C., and the amount of thromboxane B2 in the plasma was quantified using a kit (519031, Cayman Chemical). The amount of thromboxane B2 produced via the addition of ionomycin was designated as 100%, and the concentration of the test compound that inhibits 50% of such reaction was represented by the IC50 value.

A further assay concerns the target T2, COX-2 (Homo sapiens, UniProt P35354).
T2 construct: Human blood that had been sampled with the use of heparin (19 units/ml) was used; from tissue; host or cells: human whole blood (heparinised), aspirin-pretreated, stimulated with lipopolysaccharide
T2 sequence (P35354 18-604): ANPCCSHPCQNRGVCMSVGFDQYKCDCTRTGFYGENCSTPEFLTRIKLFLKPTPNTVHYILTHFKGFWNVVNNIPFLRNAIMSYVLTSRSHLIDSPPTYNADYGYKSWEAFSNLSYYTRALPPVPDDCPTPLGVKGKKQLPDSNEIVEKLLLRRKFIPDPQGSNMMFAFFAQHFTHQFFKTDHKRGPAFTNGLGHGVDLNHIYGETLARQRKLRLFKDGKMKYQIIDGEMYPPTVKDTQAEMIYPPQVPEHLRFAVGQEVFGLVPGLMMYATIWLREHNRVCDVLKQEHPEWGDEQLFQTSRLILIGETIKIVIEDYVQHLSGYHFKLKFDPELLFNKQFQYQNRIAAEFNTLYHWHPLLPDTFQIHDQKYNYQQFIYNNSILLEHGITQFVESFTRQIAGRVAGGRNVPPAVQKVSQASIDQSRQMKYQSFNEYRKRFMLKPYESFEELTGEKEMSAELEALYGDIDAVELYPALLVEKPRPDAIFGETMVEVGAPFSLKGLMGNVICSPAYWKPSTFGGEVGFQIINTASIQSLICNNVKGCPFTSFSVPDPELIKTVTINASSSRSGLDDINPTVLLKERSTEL
Kind of assay: Activity of inhibiting COX-2 in human blood (prostaglandin E2 after lipopolysaccharide). It is filed as cell-based. As to conditions: prostaglandin E2 production. As to the method: Human blood that had been sampled with the use of heparin (19 units/ml) was used. Blood was fractionated to reaction tubes in amounts of 500 μl, aspirin (12 μg/ml) was added thereto, and the resultants were incubated at 37° C. for 6 hours. Thereafter, the test compound or solvent, and lipopolysaccharide (10 μg/ml) were added, and the reaction was allowed to proceed for 18 hours. After the completion of the reaction, the supernatant (blood plasma) was recovered via centrifugation at 4° C., and the amount of prostaglandin E2 in the plasma was quantified using a kit (514010, Cayman Chemical). Dimethyl sulfoxide (DMSO) was used as a solvent for the test compound. The amount of prostaglandin E2 produced via the addition of lipopolysaccharide was designated as 100%, and the concentration of the test compound that inhibits 50% of such reaction was represented by the IC50 value.

The next assay concerns ICR mice. Nature of the assay: Partial sciatic nerve ligation model in mice (Seltzer model), von Frey test. Format: in vivo. To be noted: oral administration of 10 mg/kg; 7 days after ligation; FIG. 1. The procedure:
Analgesic effects of the compound of the present invention were evaluated using the partial sciatic nerve ligation model (Seltzer models) in mice, with which neuropathic pain can be evaluated.
Models of neuropathic pain were prepared in accordance with the method of Seltzer et al. ICR mice (5-week-old, male) were put under anesthesia with sodium pentobarbital (70 mg/kg, i.p.) to expose the sciatic nerve of the femoral region of the right posterior limb, and half of the sciatic nerve was strongly and triply ligated using 8-0 silk yarn (Natsume Seisakusho, Co., Ltd.) under a microscope (this group is designated as the “ligation group”). The group that had been subjected to exposure of the sciatic nerve without ligation was designated as a sciatic nerve control group (i.e., the “sham group”). […] The von Frey tests were performed 1 hour, 2 hours, and 3 hours after the oral administration for determining the pre-values prior to the administration of the test substances, which took place 7 days after the ligation surgery of sciatic nerve, and such values were designated as the indicators of analgesic effects. Gabapentin (30 mg/kg, po) was used as a positive control. As a solvent for the test compound, 27% HP—P—CD was used.
The obtained data were processed by performing a paired t-test amongst several groups and correcting the data via Dunnett's method.
The compound of Reference Example 78 is disclosed in the claims of JP Patent Publication (kohyo) No. 2006-517535 A, the compounds of Reference Example 93 and Reference Example 199 are disclosed in the claims of JP Patent No. 3003148, and the compound of Reference Example 103 is disclosed in the claims of JP Patent Publication (kohyo) No. 2006-514095 A. Accordingly, sulfate of Reference Example 78, toluenesulfonate of Reference Example 93, the free compound of Reference Example 199, and sulfate of Reference Example 103 were used as test compounds and evaluated using mouse models of partial sciatic nerve ligation, which were similar to those used in Example 79. 27% HP-β-CD was used as a solvent for the test compounds.

Setting [1] is: oral administration 45 minutes before 0.6% acetic acid i.p., 50% inhibition of writhing reactions, read-out: ED50 (mg/kg)[90% confidence limit].

T1 sequence (P23219 24-599): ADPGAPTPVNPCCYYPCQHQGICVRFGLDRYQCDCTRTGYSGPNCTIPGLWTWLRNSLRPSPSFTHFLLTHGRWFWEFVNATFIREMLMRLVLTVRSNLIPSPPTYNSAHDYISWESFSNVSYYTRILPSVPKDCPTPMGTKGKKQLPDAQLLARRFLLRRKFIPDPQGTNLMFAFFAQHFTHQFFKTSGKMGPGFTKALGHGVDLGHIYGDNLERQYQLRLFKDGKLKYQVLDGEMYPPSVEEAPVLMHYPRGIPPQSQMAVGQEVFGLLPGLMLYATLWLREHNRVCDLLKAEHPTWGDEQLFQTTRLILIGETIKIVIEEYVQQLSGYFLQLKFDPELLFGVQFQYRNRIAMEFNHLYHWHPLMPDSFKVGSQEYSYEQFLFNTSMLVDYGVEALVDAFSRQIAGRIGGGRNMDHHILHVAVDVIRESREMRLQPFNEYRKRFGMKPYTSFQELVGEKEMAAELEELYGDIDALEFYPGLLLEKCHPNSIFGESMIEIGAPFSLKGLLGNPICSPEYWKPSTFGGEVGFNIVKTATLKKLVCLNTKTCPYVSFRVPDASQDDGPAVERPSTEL

For `COc1ccc(-c2nc(C3CCN(C(=O)N(C)O)CC3)oc2-c2ccc(OC)cc2)cc1` [Example 1, 4-(4,5-Bis(4-methoxyphenyl)oxazol-2-yl)-1-(N-hydroxy-N-methylcarbamoyl)piperidine], the ED50 worked out at 2.02 mg/kg in the assay on ddY mice (Table 4, oral administration, comparison with similar known compound, read-out: ED50 (mg/kg) [90% confidence limit]) and 2.02 mg/kg in the assay with ddY mice (setting [1]). Also, the “activity ratio (analgesic effects)” value with ddY mice (oral administration, compared with Reference Example 78 (sulfate)) is “at least 49 times”. For the same compound, the IC50 – broadly, the point on the concentration scale where inhibition reaches its midpoint – against COX-1 was less than 0.1 µM; at COX-2 it was more than 10 µM.
As to `COc1ccc(-c2oc(C3CCN(C(=O)N(C)O)CC3)nc2-c2ccc(C)cc2)cc1` [Example 4, 4-(5-(4-Methoxyphenyl)-4-(4-tolyl)oxazol-2-yl)-1-(N-hydroxy-N-methylcarbamoyl)piperidine], the ED50 in the assay on ddY mice (setting [1]) is 4.02 mg/kg. Also, the IC50 at COX-1 was less than 0.1 µM; against COX-2, more than 10 µM.
The like results for `COc1ccc(-c2nc(C3CCN(C(=O)N(C)O)CC3)oc2-c2ccc(C)cc2)cc1` [Example 7, 4-(4-(4-Methoxyphenyl)-5-(4-tolyl)oxazol-2-yl)-1-(N-hydroxy-N-methylcarbamoyl)piperidine] were, in that order, 3.27 mg/kg, less than 0.1 µM and more than 10 µM.
Turning to `COc1ccc(-c2nc(C3CCN(C(=O)N(C)O)CC3)oc2-c2ccc(F)cc2)cc1` [Example 9, 4-(5-(4-Fluorophenyl)-4-(4-methoxyphenyl)oxazol-2-yl)-1-(N-hydroxy-N-methylcarbamoyl)-piperidine], the ED50 in the assay with ddY mice (setting [1]) amounted to 2.63 mg/kg. The results for the IC50 on COX-1 and at COX-2 were less than 0.1 µM and more than 10 µM, respectively.
In the same order, the values of `COc1ccc(-c2oc(C3CCN(C(=O)N(C)O)CC3)nc2-c2ccc(Cl)cc2)cc1` [Example 12, 4-(4-(4-Chlorophenyl)-5-(4-methoxyphenyl)oxazol-2-yl)-1-(N-hydroxy-N-methylcarbamoyl)-piperidine] are 2.29 mg/kg, less than 0.1 µM and more than 10 µM.
For `COC(=O)C1(c2nc(-c3ccc(OC)cc3)c(-c3ccc(OC)cc3)o2)CCN(C(=O)N(C)O)CC1` [Example 14, Methyl 4-(4,5-bis(4-methoxyphenyl)oxazol-2-yl)-1-(N-hydroxy-N-methylcarbamoyl)-4-piperidinecarboxylate], in the assay on ddY mice (setting [1]), the ED50 was 4.17 mg/kg. Further, in the assay with ICR mice, the “results of the von Frey test” value is listed as “significantly improved”. Further, the IC50 at COX-1 is less than 0.1 µM; against COX-2 it was more than 10 µM.
On to `COc1ccc(-c2nc(C3CCN(C(=O)N(C)O)CC3)oc2-c2ccc(Cl)cc2)cc1` [Example 20, 4-(5-(4-Chlorophenyl)-4-(4-methoxyphenyl)oxazol-2-yl)-1-(N-hydroxy-N-methylcarbamoyl)-piperidine], for which, in the assay with ddY mice (setting [1]), the ED50 is 6.45 mg/kg. Also, the half-maximal inhibitory concentration (IC50) at COX-1 was less than 0.1 µM; against COX-2, more than 10 µM.
`COc1ccc(-c2nc(C3(C#N)CCN(C(=O)N(C)O)CC3)oc2-c2ccc(OC)cc2)cc1` [Example 47, 4-(4,5-Bis(4-methoxyphenyl)oxazol-2-yl)-4-cyano-1-(N-hydroxy-N-methylcarbamoyl)piperidine]: in the assay with ddY mice (setting [1]), the ED50 stood at 3.3 mg/kg. The IC50 against COX-1 is less than 0.1 µM; on COX-2, more than 10 µM.
As to `COc1ccc(-c2nc(C3(C#N)CCN(C(=O)N(C)O)CC3)sc2-c2ccc(OC)cc2)cc1` [Example 56, 4-(4,5-Bis(4-methoxyphenyl)thiazol-2-yl)-4-cyano-1-(N-hydroxy-N-methylcarbamoyl)piperidine], the ED50 with ddY mice (setting [1]) came out at 4.61 mg/kg. The IC50 against COX-1 is less than 0.1 µM; against COX-2 it was more than 10 µM.
In the same order, the values of `COc1ccc(-n2nc(C3CCN(C(=O)N(C)O)CC3)cc2-c2ccc(C)cc2)cc1` [Example 69, 4-(1-(4-Methoxyphenyl)-5-(4-tolyl)-1H-pyrazol-3-yl)-1-(N-hydroxy-N-methylcarbamoyl)piperidine] are 3.19 mg/kg, less than 0.1 µM and more than 10 µM.
